This test concerns the target T1, human GPBAR1 receptor (Homo sapiens, UniProt Q8TDU6).
T1 construct: expressed in transfected cells
T1 sequence (Q8TDU6 1-330): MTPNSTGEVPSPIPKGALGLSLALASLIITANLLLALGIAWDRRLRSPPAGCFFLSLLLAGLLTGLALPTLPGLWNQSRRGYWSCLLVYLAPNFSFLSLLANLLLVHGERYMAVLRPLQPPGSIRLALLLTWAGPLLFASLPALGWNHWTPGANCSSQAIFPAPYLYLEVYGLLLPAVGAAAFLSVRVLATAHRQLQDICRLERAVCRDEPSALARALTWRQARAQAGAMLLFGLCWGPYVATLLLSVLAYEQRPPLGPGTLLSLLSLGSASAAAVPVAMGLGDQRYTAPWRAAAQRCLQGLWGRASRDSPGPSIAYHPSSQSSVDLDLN
Briefly: functional cAMP assay in CHO-dhfr(minus) cells expressing human GPBAR1 receptors. The conditions noted are these: cAMP increase (TR-FRET) in CHO-dhfr(minus) cells expressing human GPBAR1; compounds incubated 30 min at 30° C. It is filed as cell-based. As for the experimental part: The final clone was verified by DNA sequence analysis. The plasmid was transfected into CHO cells deficient in dihydrofolate reductase activity (CHO-dhfr−) using Lipofectamine plus (Invitrogen). Clones were isolated in limited dilution conditions and identified by activities in the cAMP assay using lithocholic acid as agonist.
The growth medium was exchanged with Krebs Ringer Bicarbonate buffer with 1 mM IBMX and incubated at 30° C. for 30 min. Compounds were added to a final assay volume of 100 μl and incubated for 30 min at 30° C. […] The time-resolved energy transfer is measured by a TRF reader (Evotec Technologies GmbH, Hamburg Germany), equipped with a ND:YAG laser as excitation source.
EC50 values were determined using Activity Base analysis (ID Business Solution, Limited). […] Specificity for GPBAR1 was tested in non-transfected CHO cells in the same assay as above.
As for `O=C(NCc1nnn[nH]1)c1cc(Cl)c(Oc2ccncc2C(=O)N2CCN(C3CC3)c3ccccc32)cc1Cl` [Example 39, 2,5-Dichloro-4-[3-(4-cyclopropyl-3,4-dihydro-2H-quinoxaline-1-carbonyl)-pyridin-4-yloxy]-N-(1H-tetrazol-5-ylmethyl)-benzamide], it took 400 nM to reach a half-maximal effect (EC50).
In the case of `O=C(O)c1ccc(NC(=O)c2cc(Cl)c(Oc3ccncc3C(=O)N3CCN(C4CC4)c4ccccc43)cc2Cl)cc1` [Example 44, 4-{2,5-Dichloro-4-[3-(4-cyclopropyl-3,4-dihydro-2H-quinoxaline-1-carbonyl)-pyridin-4-yloxy]-benzoylamino}-benzoic acid] it was 20 nM.
Compound `O=C(Nc1nncs1)c1cc(Cl)c(Oc2ccncc2C(=O)N2CCN(C3CC3)c3ccccc32)cc1Cl` [Example 48, 2,5-Dichloro-4-[3-(4-cyclopropyl-3,4-dihydro-2H-quinoxaline-1-carbonyl)-pyridin-4-yloxy]-N-[1,3,4]thiadiazol-2-yl-benzamide] gave an EC50 of 200 nM. This EC50 lies about 10-fold higher than the previous one.
In the case of `CCOC(=O)C1CC1CN1CCN(C(=O)c2cnccc2Oc2cc(Cl)ccc2Cl)c2ccccc21` (stereo not drawn) [Example 5, 2-{4-[4-(2,5-Dichloro-phenoxy)-pyridine-3-carbonyl]-3,4-dihydro-2H-quinoxalin-1-ylmethyl}-cyclopropanecarboxylic acid ethyl ester], the midpoint of the response, the EC50, lay at 1800 nM.
The compound `COC(=O)CCC(CCC(=O)OC)NC(=O)c1cc(Cl)c(Oc2ccncc2C(=O)N2CCN(C3CC3)c3ccccc32)cc1Cl` [Example 54, 4-{2,5-Dichloro-4-[3-(4-cyclopropyl-3,4-dihydro-2H-quinoxaline-1-carbonyl)-pyridin-4-yloxy]-benzoylamino}-heptanedioic acid dimethyl ester] displayed an EC50 of 300 nM.
Regarding `COc1cc(F)c(F)cc1N(C)C(=O)c1cnccc1Oc1cc(Cl)ccc1Cl` [Example 19, 4-(2,5-Dichloro-phenoxy)-N-(4,5-difluoro-2-methoxy-phenyl)-N-methyl-nicotinamide], the EC50 was 100 nM.
Then `COc1ccccc1N(C)C(=O)c1cnccc1Oc1cc(Cl)ccc1Cl` [Example 14, 4-(2,5-Dichloro-phenoxy)-N-(2-methoxy-phenyl)-N-methyl-nicotinamide], with 100 nM; and `Cc1cc(Oc2cc(Cl)c(C(=O)Nc3nnn[nH]3)cc2Cl)c(C(=O)N2CCN(C3CC3)c3ccccc32)cn1` [Example 71, 2,5-Dichloro-4-[5-(4-cyclopropyl-3,4-dihydro-2H-quinoxaline-1-carbonyl)-2-methyl-pyridin-4-yloxy]-N-(1H-tetrazol-5-yl)-benzamide], with 100 nM.
Then `N#Cc1cc(Cl)c(Oc2ccncc2C(=O)N2CCN(C3CC3)c3ccccc32)cc1Cl` [Example 56, 2,5-Dichloro-4-[3-(4-cyclopropyl-3,4-dihydro-2H-quinoxaline-1-carbonyl)-pyridin-4-yloxy]-benzonitrile], with 3 nM.
In the case of `Cn1cc(NC(=O)c2cc(Cl)c(Oc3ccncc3C(=O)N3CCN(C4CC4)c4ccccc43)cc2Cl)cc1C(=O)O` [Example 42, 4-{2,5-Dichloro-4-[3-(4-cyclopropyl-3,4-dihydro-2H-quinoxaline-1-carbonyl)-pyridin-4-yloxy]-benzoylamino}-1-methyl-1H-pyrrole-2-carboxylic acid] it was 100 nM; in that of `O=C(c1cnccc1Oc1cc(Cl)c(OCCO)cc1Cl)N1CCN(C2CC2)c2ccccc21` [Example 62, (4-Cyclopropyl-3,4-dihydro-2H-quinoxalin-1-yl)-{4-[2,5-dichloro-4-(2-hydroxy-ethoxy)-phenoxy]-pyridin-3-yl}-methanone], 12 nM; in that of `Cc1cc(Oc2cc(Cl)ccc2Cl)c(C(=O)N2CCN(C3CC3)c3ccccc32)cn1` [Example 63, (4-Cyclopropyl-3,4-dihydro-2H-quinoxalin-1-yl)-[4-(2,5-dichloro-phenoxy)-6-methyl-pyridin-3-yl]-methanone], 1 nM.

Broadly, the EC50 is the concentration at which the effect is half-maximal. Low values mean greater potency, high ones weaker potency.

The record behind these values is patent US8729091B2, “4-phenoxy-nicotinamide or 4-phenoxy-pyrimidine-5-carboxamide compounds” (Hoffmann-La Roche Inc., priority 2010, dated 2014).
